This note sets out measurements from paper PMC4348164, “Evidence of more ion channels inhibited by celecoxib: KV1.3 and L-type Ca^2+ channels” (BMC Research Notes, 2015).

The assay addresses T1, human KV1.3 channels (Homo sapiens, UniProt P22001).
T1 construct: gene KCNA3; homotetramer
The assay can be described thus: whole-cell patch clamp, CHO cells. The assay is classed as cell-based. On the technique in general: In patch-clamp work, channel activity is measured electrically.

T1 sequence (P22001 whole entry): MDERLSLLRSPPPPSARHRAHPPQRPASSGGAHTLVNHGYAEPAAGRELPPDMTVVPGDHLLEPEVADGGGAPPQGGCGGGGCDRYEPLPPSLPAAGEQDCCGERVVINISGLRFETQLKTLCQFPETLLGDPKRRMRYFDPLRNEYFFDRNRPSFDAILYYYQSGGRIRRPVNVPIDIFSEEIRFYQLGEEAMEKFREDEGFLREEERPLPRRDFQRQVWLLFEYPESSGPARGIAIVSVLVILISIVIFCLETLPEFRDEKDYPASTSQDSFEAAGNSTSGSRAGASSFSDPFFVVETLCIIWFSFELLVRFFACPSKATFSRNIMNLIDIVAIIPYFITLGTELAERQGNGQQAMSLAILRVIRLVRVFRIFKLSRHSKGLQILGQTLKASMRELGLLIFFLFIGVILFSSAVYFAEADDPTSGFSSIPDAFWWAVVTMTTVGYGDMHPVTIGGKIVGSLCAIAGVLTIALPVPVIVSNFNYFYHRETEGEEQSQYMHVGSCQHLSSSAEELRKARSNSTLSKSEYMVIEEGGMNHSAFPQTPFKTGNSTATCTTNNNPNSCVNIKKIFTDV

Turning to `Cc1ccc(-c2cc(C(F)(F)F)nn2-c2ccc(S(N)(=O)=O)cc2)cc1` [celecoxib], the IC50 (as a rule, the concentration that inhibits the measured activity by half) is 5 µM.
